Results reported in ChEMBL document CHEMBL1146185, “P2-P4 macrocyclic inhibitors of hepatitis C virus NS3-4A serine protease” (Bioorg Med Chem Lett, 2006).

What follows are molecules tested against NS3 (Hepatitis C virus, UniProt A3EZJ3) (assay: Binding affinity to HCV NS3 protease).
Parameters: species or system Hepacivirus hominis

Chain of NS3 (A3EZJ3 whole entry): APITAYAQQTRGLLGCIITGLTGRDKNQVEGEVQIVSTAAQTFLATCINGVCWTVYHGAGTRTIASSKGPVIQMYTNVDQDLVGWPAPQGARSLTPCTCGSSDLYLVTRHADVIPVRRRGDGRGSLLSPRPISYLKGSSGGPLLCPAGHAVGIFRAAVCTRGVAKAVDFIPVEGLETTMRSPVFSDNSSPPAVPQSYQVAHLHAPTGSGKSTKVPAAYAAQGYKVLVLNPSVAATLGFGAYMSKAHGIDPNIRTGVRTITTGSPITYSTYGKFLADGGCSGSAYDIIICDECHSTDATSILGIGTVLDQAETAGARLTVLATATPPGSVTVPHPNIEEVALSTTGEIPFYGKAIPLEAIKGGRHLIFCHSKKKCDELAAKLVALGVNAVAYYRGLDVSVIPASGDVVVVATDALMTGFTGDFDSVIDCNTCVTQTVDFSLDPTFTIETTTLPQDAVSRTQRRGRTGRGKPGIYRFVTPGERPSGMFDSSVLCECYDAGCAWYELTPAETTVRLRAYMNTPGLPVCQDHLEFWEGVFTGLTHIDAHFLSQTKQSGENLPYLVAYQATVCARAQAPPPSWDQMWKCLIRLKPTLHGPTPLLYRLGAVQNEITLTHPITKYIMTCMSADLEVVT

Compared with `CCCC(NC(=O)[C@@H]1C[C@@H]2CN1C(=O)[C@H](C1CCCCC1)NC(=O)N(C)c1cccc(c1)OCCCO2)C(=O)C(=O)NCC(=O)N[C@H](C(=O)N(C)C)c1ccccc1` (some centres not stated), `CCCC(NC(=O)[C@@H]1C[C@@H]2CN1C(=O)[C@H](C1CCCCC1)NC(=O)N(C)Cc1cccc(c1)OCCCO2)C(=O)C(=O)NCC(=O)N[C@H](C(=O)N(C)C)c1ccccc1` (some centres not stated) is 3.5-fold lower in Ki: 0.09 µM for the first, 0.026 µM for the second. The second binds more tightly here.

`CCCC(NC(=O)[C@@H]1C[C@@H]2CN1C(=O)[C@H](C1CCCCC1)NC(=O)Cc1cc(OC)cc(c1)OCCCO2)C(=O)C(=O)NCC(=O)N[C@H](C(=O)N(C)C)c1ccccc1` (some centres not stated) and `CCCC(NC(=O)[C@@H]1C[C@@H]2CN1C(=O)[C@H](C1CCCCC1)NC(=O)Cc1cc(C)cc(c1)OCCCO2)C(=O)C(=O)NCC(=O)N[C@H](C(=O)N(C)C)c1ccccc1` (some centres not stated) are within 1.5-fold of each other in Ki: 0.032 µM for the first, 0.03 µM for the second.

`CCCC(NC(=O)[C@@H]1C[C@@H]2CN1C(=O)[C@H](C(C)(C)C)NC(=O)c1cccc(c1)OCCCCO2)C(=O)C(=O)NCC(=O)N[C@H](C(=O)N(C)C)c1ccccc1` (some centres not stated) and `CCCC(NC(=O)[C@@H]1C[C@@H]2CN1C(=O)[C@H](C(C)(C)C)NC(=O)Oc1cccc(c1)OCCCO2)C(=O)C(=O)NCC(=O)N[C@H](C(=O)N(C)C)c1ccccc1` (some centres not stated) are within 1.5-fold of each other in Ki: 0.21 µM for the first, 0.2 µM for the second.

Compared with `CCCC(NC(=O)[C@@H]1C[C@@H]2CN1C(=O)[C@H](C1CCCCC1)NC(=O)Nc1cccc(c1)OCCCO2)C(=O)C(=O)NCC(=O)N[C@H](C(=O)N(C)C)c1ccccc1` (some centres not stated), `CCCC(NC(=O)[C@@H]1C[C@@H]2CN1C(=O)[C@H](C1CCCCC1)NC(=O)Cc1cccc(c1)OCCCO2)C(=O)C(=O)NCC(=O)N[C@H](C(=O)N(C)C)c1ccccc1` (some centres not stated) is 200-fold lower in Ki: 1.6 µM for the first, 0.008 µM for the second.

Compared with `CCCC(NC(=O)[C@@H]1C[C@@H]2CN1C(=O)[C@H](C1CCCCC1)NC(=O)Cc1ccc(C)c(c1)OCCCO2)C(=O)C(=O)NCC(=O)N[C@H](C(=O)N(C)C)c1ccccc1` (some centres not stated), `CCCC(NC(=O)[C@@H]1C[C@@H]2CN1C(=O)[C@H](C1CCCC(C(=O)O)C1)NC(=O)Cc1cccc(c1)OCCCO2)C(=O)C(=O)NCC(=O)N[C@H](C(=O)N(C)C)c1ccccc1` (some centres not stated) is 2-fold lower in Ki: 0.012 µM for the first, 0.006 µM for the second. The second binds more tightly here.

First: CCCC(NC(=O)[C@@H]1C[C@@H]2CN1C(=O)[C@H]([C@H]1CC[C@@H](C(=O)O)CC1)NC(=O)Cc1cccc(c1)OCCCO2)C(=O)C(=O)NCC(=O)N[C@H](C(=O)N(C)C)c1ccccc1 (some centres not stated)
Second: CCCC(NC(=O)[C@@H]1C[C@@H]2CN1C(=O)[C@H]([C@H]1CC[C@H](C(=O)O)CC1)NC(=O)Cc1cccc(c1)OCCCO2)C(=O)C(=O)NCC(=O)N[C@H](C(=O)N(C)C)c1ccccc1 (some centres not stated)
The Ki of the first is 1.6-fold higher: 0.03 µM for the first, 0.019 µM for the second. The second binds more tightly here.
